Data taken from patent US10160724B2, “Tetrahydropyridine derivatives and their use as antibacterial agents” (Dong-A St Co., Ltd., priority 2016, dated 2018).
Converted amounts (≈) assume the structure as drawn.

Key:
Experiment in all cases: In vitro antibiotic activity, agar dilution method (Mueller-Hinton agar, NCCLS)
Format in all cases: cell-based
K. pneumoniae ATCC 29665 = details: Klebsiella pneumoniae, ATCC29665; agar dilution, Mueller-Hinton agar; read-out: MIC for K. pneumoniae ATCC 29665
Procedure, shortened: (§1)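 MICs determined by agar dilution on Mueller-Hinton agar following NCCLS M7 guidance, against E. coli ATCC 25922, K. pneumoniae ATCC 29665 and P. aeruginosa PAO1.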

E. coli ATCC 25922 = details: Escherichia coli, ATCC25922; agar dilution, Mueller-Hinton agar; read-out: MIC for E. coli ATCC 25922
Procedure, shortened: as §1

P. aeruginosa PAO1 = details: Pseudomonas aeruginosa, PAO1; agar dilution, Mueller-Hinton agar; read-out: MIC for P. aeruginosa PAO1
Procedure, shortened: as §1

Row | SMILES | MIC (K. pneumoniae ATCC 29665) | MIC (E. coli ATCC 25922) | MIC (P. aeruginosa PAO1)
1 | CC(CCN1CC=C(c2ccc(-c3cccnc3)cc2)CC1)(C(=O)NO)S(C)(=O)=O (stereo not drawn) [Example 61, N-hydroxy-2-methyl-2-(methylsulfonyl)-4-(4-(4-(pyridin-3-yl)phenyl)-3,6-dihydropyridin-1(2H)-yl)butanamide] | > 16 µg/mL | 1 to 8 µg/mL (≈ 2.33 to 18.6 µM) | 1 to 8 µg/mL (≈ 2.33 to 18.6 µM)
2 | CC(CCN1CC=C(c2ccc(-c3ccc(F)nc3)cc2)CC1)(C(=O)NO)S(C)(=O)=O (stereo not drawn) [Example 62, 4-(4-(4-(6-fluoropyridin-3-yl)phenyl)-3,6-dihydropyridin-1(2H)-yl)-N-hydroxy-2-methyl-2-(methylsulfonyl)butanamide] | 1 to 8 µg/mL (≈ 2.23 to 17.9 µM) | < 1 µg/mL | 1 to 8 µg/mL (≈ 2.23 to 17.9 µM)
3 | CC(CCN1CC=C(c2ccc(-c3ccoc3)cc2)CC1)(C(=O)NO)S(C)(=O)=O (stereo not drawn) [Example 63, 4-(4-(4-(furan-3-yl)phenyl)-3,6-dihydropyridin-1(2H)-yl)-N-hydroxy-2-methyl-2-(methylsulfonyl)butanamide] | < 1 µg/mL | < 1 µg/mL | 8 to 16 µg/mL (≈ 19.1 to 38.2 µM)
4 | CC(CCN1CC=C(c2ccc(-c3ccc(S(C)(=O)=O)cc3)cc2)CC1)(C(=O)NO)S(C)(=O)=O (stereo not drawn) [Example 64, N-hydroxy-2-methyl-2-(methylsulfonyl)-4-(4-(4′-(methylsulfonyl)-[1,1′-biphenyl]-4-yl)-3,6-dihydropyridin-1(2H)-yl)butanamide] | 1 to 8 µg/mL (≈ 1.97 to 15.8 µM) | < 1 µg/mL | 1 to 8 µg/mL (≈ 1.97 to 15.8 µM)
5 | CC(CCN1CC=C(c2ccc(-c3ccc(CO)cc3)cc2)CC1)(C(=O)NO)S(C)(=O)=O (stereo not drawn) [Example 65, N-hydroxy-4-(4-(4′-(hydroxymethyl)-[1,1′-biphenyl]-4-yl)-3,6-dihydropyridin-1(2H)-yl)-2-methyl-2-(methylsulfonyl)butanamide] | 8 to 16 µg/mL (≈ 17.4 to 34.9 µM) | < 1 µg/mL | > 16 µg/mL
6 | CC(CCN1CC=C(c2ccc(-c3ccc(C#N)cc3)cc2)CC1)(C(=O)NO)S(C)(=O)=O (stereo not drawn) [Example 66, 4-(4-(4′-cyano-[1,1′-biphenyl]-4-yl)-3,6-dihydropyridin-1(2H)-yl)-N-hydroxy-2-methyl-2-(methylsulfonyl)butanamide] | 1 to 8 µg/mL (≈ 2.2 to 17.6 µM) | < 1 µg/mL | > 16 µg/mL
7 | CCCCCc1ccc(-c2ccc(C3=CCN(CCC(C)(C(=O)NO)S(C)(=O)=O)CC3)cc2)cc1 (stereo not drawn) [Example 67, N-hydroxy-2-methyl-2-(methylsulfonyl)-4-(4-(4′-pentyl-[1,1′-biphenyl]-4-yl)-3,6-dihydropyridin-1(2H)-yl)butanamide] | > 16 µg/mL | 8 to 16 µg/mL (≈ 16 to 32.1 µM) | > 16 µg/mL
8 | CC(CCN1CC=C(c2ccc(-c3ccc(S(=O)(=O)N4CCC4)cc3)cc2)CC1)(C(=O)NO)S(C)(=O)=O (stereo not drawn) [Example 68, 4-(4-(4′-(azetidin-1-ylsulfonyl)-[1,1′-biphenyl]-4-yl)-3,6-dihydropyridin-1(2H)-yl)-N-hydroxy-2-methyl-2-(methylsulfonyl)butanamide] | 1 to 8 µg/mL (≈ 1.83 to 14.6 µM) | < 1 µg/mL | 1 to 8 µg/mL (≈ 1.83 to 14.6 µM)
9 | CC(CCN1CC=C(c2ccc(-c3ccc(OS(C)(=O)=O)cc3)cc2)CC1)(C(=O)NO)S(C)(=O)=O (stereo not drawn) [Example 69, 4′-(1-(4-(hydroxyamino)-3-methyl-3-(methylsulfonyl)-4-oxobutyl)-1,2,3,6-tetrahydropyridin-4-yl)-[1,1′-biphenyl]-4-yl methanesulfonate] | < 1 µg/mL | < 1 µg/mL | 8 to 16 µg/mL
10 | CC(CCN1CC=C(c2ccc(-c3ccsc3)cc2)CC1)(C(=O)NO)S(C)(=O)=O (stereo not drawn) [Example 70, N-hydroxy-2-methyl-2-(methylsulfonyl)-4-(4-(4-(thiophen-3-yl)phenyl)-3,6-dihydropyridin-1(2H)-yl)butanamide] | < 1 µg/mL | < 1 µg/mL | > 16 µg/mL
11 | COc1ccsc1-c1ccc(C2=CCN(CCC(C)(C(=O)NO)S(C)(=O)=O)CC2)cc1.Cl (stereo not drawn) [Example 71, N-hydroxy-4-(4-(4-(3-methoxythiophen-2-yl)phenyl)-3,6-dihydropyridin-1(2H)-yl)-2-methyl-2-(methylsulfonyl)butanamide hydrochloride] | < 1 µg/mL | < 1 µg/mL | > 16 µg/mL
12 | Cc1csc(-c2ccc(C3=CCN(CCC(C)(C(=O)NO)S(C)(=O)=O)CC3)cc2)c1.Cl (stereo not drawn) [Example 72, N-hydroxy-2-methyl-2-(methylsulfonyl)-4-(4-(4-(4-methylthiophen-2-yl)phenyl)-3,6-dihydropyridin-1(2H)-yl)butanamide hydrochloride] | < 1 µg/mL | < 1 µg/mL | > 16 µg/mL
13 | CCS(=O)(=O)c1ccc(-c2ccc(C3=CCN(CCC(C)(C(=O)NO)S(C)(=O)=O)CC3)cc2)cc1.Cl (stereo not drawn) [Example 73, 4-(4-(4′-(ethylsulfonyl)-[1,1′-biphenyl]-4-yl)-3,6-dihydropyridin-1(2H)-yl)-N-hydroxy-2-methyl-2-(methylsulfonyl)butanamide hydrochloride] | 1 to 8 µg/mL | < 1 µg/mL | 1 to 8 µg/mL
14 | CC(CCN1CC=C(c2ccc(-c3ccc(CN4CCOCC4)cc3)cc2)CC1)(C(=O)NO)S(C)(=O)=O (stereo not drawn) [Example 74, N-hydroxy-2-methyl-2-(methylsulfonyl)-4-(4-(4′-(morpholinomethyl)-[1,1′-biphenyl]-4-yl)-3,6-dihydropyridin-1(2H)-yl)butanamide] | < 1 µg/mL | < 1 µg/mL | 1 to 8 µg/mL (≈ 1.9 to 15.2 µM)
15 | COCC#Cc1ccc(C2=CCN(CCC(C)(C(=O)NO)S(C)(=O)=O)CC2)cn1 (stereo not drawn) [Example 75, N-hydroxy-4-(6-(3-methoxyprop-1-yn-1-yl)-3′,6′-dihydro-[3,4′-bipyridin]-1′(2′H)-yl)-2-methyl-2-(methylsulfonyl)butanamide] | > 16 µg/mL | > 16 µg/mL | > 16 µg/mL
16 | CC(CN1CC=C(c2ccc(-c3ccccc3)cc2)CC1)(C(=O)NO)S(C)(=O)=O (stereo not drawn) [Example 76, 3-(4-([1,1′-biphenyl]-4-yl)-3,6-dihydropyridin-1(2H)-yl)-N-hydroxy-2-methyl-2-(methylsulfonyl)propanamide] | > 16 µg/mL | > 16 µg/mL | > 16 µg/mL
